Results taken from US20220000777A1, “LIPOSOMAL ENHANCED INTRA-PERITONEAL CHEMOTHERAPY” (TESORX PHARMA, LLC, priority 2018, published 2022).
Where “and” joins values, the source holds several entries; their conditions need not be identical. Equal entries are not always repeated. Structures can show the parent of a compound that is named as a salt. Where two headings read alike, the source gives them in different places. Blank lines part the entries; values can stand above or below the compound they belong to.

Columns and labels:
[1] = tested on: OVCAR3-RFP human ovarian cancer cells; experiment: sulforhodamine B (SRB) assay, dosage curves and IC50; type: cell-based; details: 72 h treatment; for IC50: Homo sapiens, 72 h
Method: Example 1. Determination of paclitaxel […] in TSD-001-treated human ovarian cancer cells. A sulforhodamine B (SRB) assay-based approach was employed to determine the inhibitory concentration (IC)50 of paclitaxel against OVCAR3-RFP human ovarian cancer cells (Anticancer Inc.) treated with the TSD-001 paclitaxel liposomal formulation (Paclitaxel:DMPC:DMPG=1:1.43:0.567). For use in the assay, lyophilized TSD-001 was reconstituted in sterile injectable-grade water to a concentration of 6 mg/mL and subsequently serially diluted in RPMI cell culture medium (RPMI-1640 with L-glutamine, Corning). Three separate dosage curve assays were performed. In two of the assays, the serial dilutions of TSD-001 ranged from 0.05 μg/mL to 0.391 ng/mL, and in the third assay, the serial dilutions of TSD-001 ranged from 0.0128 μg/mL to 2.147 ng/mL.
Serial dilutions of the Abraxane® paclitaxel formulation (nanoparticle albuminbound paclitaxel) and doxorubicin HCl were also prepared to perform comparative dosage curve assays in OVCAR3-RFP cells. For these assays, lyophilized Abraxane® was dissolved in RPMI medium to a concentration of 1 mg/mL, and doxorubicin HCl was dissolved in a small amount of DMSO, and the diluted in RPMI medium to a concentration of 1 mg/mL. Three separate dosage curve assays were performed for Abraxane®. In one assay, the serial dilutions of Abraxane® ranged from 0.04 μg/mL to 0.078 ng/mL. In the second assay, the serial dilutions of Abraxane® ranged from 0.04 μg/mL to 8.39 ng/mL and in the third assay, the serial dilutions of Abraxane® ranged from 0.032 μg/mL to 8.39 ng/mL. […]
OVCAR3-RFP cells were seeded onto 96-well clear flat-bottom polystyrene tissue culture plates (Corning) at a density of approximately 5×10^3 cells/well in 200 μl of RPMI. […] Protein-bound SRB was detected by adding 200 μl 10 mM Tris base solution (pH 10.5) to each well, followed by placing the plate(s) on a byratory shaker for 5 minutes to allow the Tris solution to solubilize SRB. The plates were read using a microplate reader at an absorbance of 510 nm. […]

[2] = cited from earlier work
[3] = tested on: ovarian cancer; details: intraperitoneal cisplatin regimen, versus 41 months, p=0.02; cited from earlier work
[4] = tested on: ovarian cancer; details: cited from earlier work

IC50 ([1]; Table 1, combined data, read-out: Mean IC50 (μg/mL) against OVCAR3-RFP cells (n ≥ 5)): 0.191 ± 0.0835 µg/mL | IC50 ([1]; single dosage curve assay, n=3 or 4 wells/concentration, read-out: IC50 at 72 h.): 0.17 µg/mL | IC50 at 72 h. ([1]; single dosage curve assay, n=3 or 4 wells/concentration, HCl): 0.1322 µg/mL and 0.166 µg/mL
Compound: COc1cccc2c1C(=O)c1c(O)c3c(c(O)c1C2=O)C[C@@](O)(C(=O)CO)C[C@@H]3O[C@H]1C[C@H](N)[C@H](O)[C@H](C)O1 [doxorubicin HCl]

Compound: N.N.[Cl][Pt][Cl] [cisplatin, Cis-diamminedichloroplatinum(10)]
peritoneal cavity exposure to greater concentrations than possible with systemic therapy delivery ([2]; in vivo, ip): 10-20 fold | overall survival median [3]: 49 months

Compound: CC(=O)O[C@H]1C(=O)[C@@]2(C)[C@H]([C@H](OC(=O)c3ccccc3)[C@]3(O)C[C@H](OC(=O)[C@H](O)[C@@H](NC(=O)c4ccccc4)c4ccccc4)C(C)=C1C3(C)C)[C@]1(OC(C)=O)CO[C@@H]1C[C@@H]2O [paclitaxel]
peritoneal cavity exposure to greater concentrations than possible with systemic therapy delivery ([2]; intraperitoneal versus systemic delivery): greater than 1000 fold | surgical complete response ([4]; intraperitoneal 60 mg/m^2 per week for 16 weeks, microscopic residual patients): 61% | complete response ([4]; intraperitoneal 60 mg/m^2 per week for 16 weeks, women with macroscopic residual cancer): one of the 31 | dose-limiting toxicity ([4]; intraperitoneal use, Phase 1 study): abdominal pain
